Results reported in patent publication US12600704B2, “Substituted 1,2,4-triazoles and methods of use” (STINGINN LLC, priority 2019, dated 2026).

Experiments:
hTERT cells = assay: ELISA of type I IFN and cytokines in hTERT cells; type: cell-based, human
Excerpt: (§1) Example 2: Examining Agonists of STING. Compounds of the present invention were examined for its ability to activate the type I interferon (IFN) promoter, using a live cell assay. This assay comprised immortalized human fibroblasts (hTERT) that were stably transfected with the type I IFN promoter driving luciferase as well as the CMV promoter driving SEAP (hTERT-pIFNβ-Glu). The live cell assay was developed by the Barber lab and has been patented. The ability of the small molecules to activate the type I IFN promoter and the transcription of luciferase, but not SEAP was assessed. This is since the activation of STING, typically by CDNs, in turn activates the transcription factors NF-κB and IRF3, both of which are required to induce the transcriptional stimulation of the Type I IFN promoter, but not the CMV promoter (IRF3 and NF-κB transcription factor binding sites are not contained in the CMV promoter). Thus, activation of STING by a small molecule identified in the first screen (HTS), results in the level of luciferase increasing relative to SEAP production. […] To confirm this, Compound 28 was administered onto normal hTERT cells and the production of Type I IFN measured using ELISA (FIG. 1C). […] Thus, Compound 28 is a more robust activator of STING compared to CDNs.
Example 10: Interferon β ELISA analysis. […]

[1] = target: T1, STING (amino acids 152-379, STING152-379H) (Homo sapiens, UniProt Q86WV6); assay: Thermal shift assay (TSA) binding screen with purified STING152-379H
T1 construct: made in house; host or cells: E. coli BL21 DE3 RIPL Codon Plus
T1 sequence (Q86WV6 with tags, fused parts or gaps): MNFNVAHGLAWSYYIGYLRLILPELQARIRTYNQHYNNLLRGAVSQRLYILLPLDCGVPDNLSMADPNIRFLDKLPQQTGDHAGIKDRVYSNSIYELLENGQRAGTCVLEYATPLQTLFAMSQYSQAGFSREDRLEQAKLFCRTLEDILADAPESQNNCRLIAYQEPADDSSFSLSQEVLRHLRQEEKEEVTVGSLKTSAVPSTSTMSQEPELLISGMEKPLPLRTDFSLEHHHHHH
Excerpt: Example 1: Identification of small molecule activators of STING. An assay was designed to identify small compounds that bound to STING. To achieve this, the carboxyl terminal region of STING (amino acids 152-379) fused to a histidine tag was expressed in bacteria as described in materials and methods. Soluble STING dimers were purified over a nickel affinity column and enriched further using gel filtration. Purified STING was used in a thermal shift assay (TSA) to isolate small molecules that bound to STING. A thermal shift assay quantifies the change in the thermal denaturation temperature of a protein. […] Once this was established, purified STING (5 μl; 1 μM) was mixed with 2.5 μl DMSO and compound (1% DMSO final with 2.5% SYPRO orange. The total reaction mixture was 10 μl in […] HEPES and 100 mM NaCl. SYPRO Orange binds nonspecifically to hydrophobic surfaces. When the protein unfolds, the exposed hydrophobic surfaces bind the dye, resulting in an increase in fluorescence by excluding water. The stability curve and its midpoint value (melting temperature, Tm also known as the temperature of hydrophobic exposure, Th) was obtained by gradually increasing the temperature to unfold the protein and measuring the fluorescence at each point. Curves were measured for STING only and STING+small molecule, and ΔTm was calculated. […]

[2] = system: type I IFN promoter (IFNβ promoter) in hTERT-pIFNβ-Glu cells; assay: Live cell assay: type I IFN promoter driving luciferase (CMV promoter driving SEAP) in hTERT-pIFNβ-Glu cells; type: cell-based, human
Excerpt: Compounds of the present invention were examined for their ability to activate the type I interferon (IFN) promoter, using a live cell assay. This assay comprised immortalized human fibroblasts (hTERT) that were stably transfected with the type I IFN promoter driving luciferase as well as the CMV promoter driving SEAP (hTERT-pIFNβ-Glu), as described in PCT Application No. PCT/US2019/025380, inventor Glen N. Barber, published as WO2019195285, which is herein incorporated by reference in its entirety and for all purposes. The ability of the small molecules to activate the type I IFN promoter and the transcription of luciferase, but not SEAP was assessed. […]
Solubility was determined using proprietary software, e.g., https://www.researchgate.net/publication/12055195_Internet_Software_for_the_Calculation_of_the_Lipophilicity_and_Aqueous_Solubility_of_Chemical_Compounds, last visited Dec. […]
Example 2: Examining Agonists of STING. […] The ability of the small molecules to activate the type I IFN promoter and the transcription of luciferase, but not SEAP was assessed. […] To confirm this, Compound 28 was administered onto normal hTERT cells and the production of Type I IFN measured using ELISA (FIG. 1C). […]

STING [3] = assay: Immunofluorescence of STING trafficking and IRF3/NF-κB nuclear localization in hTERT cells; type: cell-based, human
Excerpt: Example 2: Examining Agonists of STING. Compounds of the present invention were examined for its ability to activate the type I interferon (IFN) promoter, using a live cell assay. This assay comprised immortalized human fibroblasts (hTERT) that were stably transfected with the type I IFN promoter driving luciferase as well as the CMV promoter driving SEAP (hTERT-pIFNβ-Glu). The live cell assay was developed by the Barber lab and has been patented. The ability of the small molecules to activate the type I IFN promoter and the transcription of luciferase, but not SEAP was assessed. This is since the activation of STING, typically by CDNs, in turn activates the transcription factors NF-κB and IRF3, both of which are required to induce the transcriptional stimulation of the Type I IFN promoter, but not the CMV promoter (IRF3 and NF-κB transcription factor binding sites are not contained in the CMV promoter). […] To confirm this, Compound 28 was administered onto normal hTERT cells and the production of Type I IFN measured using ELISA (FIG. 1C). […]
Example 11: Immunofluorescence microscopy. […] Immunostaining was performed with rabbit-anti-STING polyclonal, rabbit-anti-IRF3 (Santa Cruz Biotechnology) or rabbit-anti-p65 (Cell Signaling) followed by fluorescence conjugated secondary antibodies (FITC-goat-anti-rabbit) (Invitrogen). […]

[4] = system: STING dependent TBK1 and IRF3 phosphorylation; assay: Immunoblot of TBK1/IRF3 phosphorylation in hTERT cells
Procedure: Equal amounts of proteins were resolved on sodium dodecyl sulfate (SDS)-Polyacrylamide gels and then transferred to polyvinylidene fluoride (PVDF) membranes (Millipore). After blocking with 5% Blocking Reagent, membranes were incubated with various primary antibodies (and appropriate secondary antibodies). The image was resolved using an enhanced chemiluminescence system ECL (Thermo Scientific) and detected by autoradiography (Kodak).

STING [5] = assay: Type I IFN production in hTERT cells lacking STING (RNAi); type: cell-based, human; conditions: STING RNAi vs control RNAi
Excerpt: as §1

| Compound | Production of type I IFN (hTERT cells; human fibroblasts (hTERT)) | Binding to STING [1] | Activation of the type I IFN promoter (luciferase but not SEAP) [2] | fold induction at 50 µM ([2]; Homo sapiens, 50 μM, 0.5% DMSO, luciferase, approx. 24 h (FIGS. 2A-C) or approx. 12 h (FIGS. 3A-B), read-out: Activity (Fold changes of IFNβ promoter activity at 50 μM)) | STING trafficking and IRF3/NF-κB activation and nuclear localization (STING [3]) | Duration of STING activation (STING [3]; STING trafficking, nuclear localization of NF-κB and IRF3) | Activation/phosphorylation of TBK1 (and IRF3) [4] | Production of cytokines IL6, IL8 and MCP-1 (hTERT cells; hTERT cells) | Type I IFN production in hTERT cells lacking STING (STING [5]) |
| --- | --- | --- | --- | --- | --- | --- | --- | --- | --- |
| 2-((5-(4-ethylphenyl)-4H-1,2,4-triazol-3-yl)thio)-1-phenylpropan-1-one [Compound 28] | induce the production of type I IFN and other cytokines | – | – | – | – | – | – | – | – |
| CCc1ccc(-c2nnc(SC(C)C(=O)c3ccccc3)[nH]2)cc1 (stereo not drawn) [Compound 28, 2-((5-(4-ethylphenyl)-4H-1,2,4-triazol-3-yl)thio)-1-phenylpropan-1-one] | – | can bind to and specifically activate STING signaling | exhibited the ability to activate the type I IFN promoter in hTERT-pIFNβ-Glu and induce the expression of luciferase but not SEAP | 8 | induces STING trafficking and IRF3/NF-κB activation and nuclear localization in hTERT cells | over 24 hours | able to activate TBK-1 | the production of cytokines IL6, IL8 and MCP-1 | unable to produce type I IFN |
